According to publication PMC2688476, “Low affinity glucocorticoid binding site ligands as potential anti-fibrogenics” (Comparative Hepatology, 2009):
pIC50: −log10 of the molar value. Where a name gives a salt, the structure may show the parent alone. Read-outs that look alike come from different tables or passages of the source.

Columns and labels:
[1] = target: low affinity glucocorticoid binding site (LAGS) in rat liver microsomes (Rattus norvegicus, UniProt P70580); experiment: Competition with radiolabelled dexamethasone for specific binding to rat liver microsomes (LAGS activity); settings: for pIC50: vs radiolabelled dexamethasone
Procedure: A small volume of each incubation was removed to determine the total ligand concentration ([L0]) prior to removal of free unbound ligand by dextran/charcoal adsorption. […] Free ligand concentration at equilibrium was calculated by subtracting specifically bound ligand at equilibrium from the total ligand concentration (i.e. [L0] - [LRe]) and assumes receptor-ligand stoichiometry of 1:1.
In brief, rats were anaesthetized with pentobarbital and a 16G cannula inserted into the hepatic portal vein and secured. […] The liver was then excised and chopped roughly with ice-cooled TS buffer (10 mM Tris/HCl pH 7.4 containing 250 mM sucrose) and disrupted using a Potter-Elvehjem homogenisor. The resultant homogenate was then centrifuged at 12,000 g for 20 minutes at 4°C and the supernatant retained and centrifuged at 100,000 g for 60 minutes at 4°C. The resultant "microsomal" pellet was re-suspended in fresh TS buffer and re-centrifuged at 100,000 g to obtain a washed microsomal pellet. […] After overnight incubation on ice, free ligand was removed by charcoal dextran adsorption and bound radioligand determined in supernatants by liquid scintillation, essentially as previously described.

human HSCs = experiment: Human HSC trans-differentiation/proliferation (confluence, α-sma); type: cell-based; settings: confluence at day 12
Procedure: (§1) Figure 5 Screening for inhibitors of trans-differentiation in rat and human HSCs – Part 1. Rat HSCs were isolated and cultured for 2 days (T0) whereupon cells were treated with the indicated compound as outlined in methods section. After 9 days, cells were analyzed by Western blotting for α-smooth muscle actin (α-sma). Each lane contains 10 μg total protein/lane, results typical of at least 3 separate experiments (a). Human HSCs were treated with the indicated compound and confluence determined in randomly selected fields. Data are the mean and standard deviation confluence at day 12 of 3 separate treatment dishes from the same donor, typical of at least 3 separate donors (b).
Figure 6 Screening for inhibitors of trans-differentiation in rat and human HSCs – Part 2. Photomicrographs of human HSCs at day 12 of culture with the indicated treatment (a); levels of expression of α-smooth muscle actin (α-sma) (b) and levels of expression of fibrogenic marker mRNA transcripts in human HSCs after treatment selected compounds for 19 days. Data are the mean and standard deviation relative transcript level from 3 separate treatments on cells from the same donor, typical of at least 3 separate donors (c).
(§2) HSCs were isolated from rats (250–300 g body weight, Harlan, UK) by sequential pronase/collagenase perfusion of the liver followed by density gradient centrifugation and elutriation as previously outlined. Human HSCs were isolated by an essentially similar procedure using discarded tissue from patients undergoing a hepatectomy with patient consent and ethical approval by the Grampian Regional Ethical Committee. HSCs were seeded onto plastic culture dishes and cultured in Dulbecco's modified Eagle Medium (DMEM) containing 4.5 g/l of glucose and supplemented with 5% or 16% (v/v) fetal calf serum (for rat or human respectively), […] penicillin, 80 μg/ml streptomycin and 32 μg/ml gentamycin. Additional treatments were made by addition of compounds in an ethanol vehicle (stock solutions at 1000× final concentration). Ethanol at 0.1% (v/v) acted as control. Frequency of treatment (3 treatments per week/2 medium changes per week), as previously described.

rPGRMC1 = target: T1, rPGRMC1 (Rattus norvegicus, UniProt P70580); experiment: Dexamethasone binding competition in COS-7 cells transfected with pSG5-rPGRMC1; settings: unlabelled competitor, Fig. 2e
T1 construct: the full length cDNA for rPGRMC1 was cloned from rat myofibroblasts and expressed in COS-7 cells; expressed in transfected cells; host or cells: COS-7 cells transfected with pSG5-rPGRMC1
Procedure: Western blot for rPGRMC1 in various cell fractions using the anti-IZ Ab in COS-7 cells transfected with the indicated construct. All lanes were loaded with 10 μg protein/lane. Note, HC5 is a truncated form of rPGRMC1 cloned from rat kidney (a). Western blot for rPGRMC1 using the anti-IZ Ab and CYP2E1 (lower blot). Rat hepatocytes were cultured for 24 hours to allow attachment (T0) and then treated for 24 hours with the indicated ligand or ethanol vehicle prior to analysis. Each lane contains 10 μg total protein/well, typical of 3 separate experiments (b). […] The percentage of cells that stained positive for beta galactosidase activity (grey bars) was determined in situ in separate wells by examining at least 5 randomly selected low power fields. […] The percent of binding in the presence of unlabelled competitors was determined after subtraction of non-specific binding. […]
COS-7 cells were transfected at 30–50% confluency using Effectene transfection reagent (Qiagen, Southampton, UK) essentially according to the manufacturer's instructions with either pSG5 empty vector, pSG5-rPGRMC1 or the β-galactosidase-encoding pcDNA3.1e/lacZ vector (Invitrogen, Paisley, UK). Thirty hours after transfection, β-galactosidase activity was determined in fixed cells,in situ. […]

rat HSCs = experiment: Rat HSC-to-myofibroblast trans-differentiation (α-smooth muscle actin Western blot); type: cell-based; settings: α-sma Western blot after 9 days of treatment
Procedure: as §1, §2

CYP3A1/3A23 = experiment: Screening for PXR activators in rat hepatocytes via CYP3A induction (Western blot); type: cell-based; settings: 10 μM for 24 hours (PCN 20 μM), Western blot
[2] = target: progesterone binding protein in pig liver microsomes; settings: read-out: IC50% for competition for progesterone binding protein; cited from earlier work
CYP3A4 = experiment: Screening for PXR activators in human hepatocytes via CYP3A induction (Western blot); type: cell-based; settings: 24 hours treatment, Western blot
human myofibroblasts = experiment: Fibrogenic marker mRNA transcripts (TGFβ, TIMP1, collagen 1A1) in human myofibroblasts, qRT-PCR; type: cell-based; settings: treatment for 19 days
Excerpt: Quantitative transcript expression was examined after reverse transcription (using a Taqman reverse transcription kit (Applied Biosystems)) using a PE Applied Biosystems ABI7700 and PE Applied Biosystems Gene Expression Assay™, incorporating sequence-specific forward, reverse and fluorescently labelled probes (see Table 2).

[3] = read-out: IC50% (competition of substituted progestins for binding to rat liver microsomes), Additional file 1
[4] = read-out: IC50% (competition of dexamethasone derivatives for binding to rat liver microsomes), Additional file 2

low affinity glucocorticoid binding site (LAGS) in rat liver microsomes, sequence (P70580 2-195): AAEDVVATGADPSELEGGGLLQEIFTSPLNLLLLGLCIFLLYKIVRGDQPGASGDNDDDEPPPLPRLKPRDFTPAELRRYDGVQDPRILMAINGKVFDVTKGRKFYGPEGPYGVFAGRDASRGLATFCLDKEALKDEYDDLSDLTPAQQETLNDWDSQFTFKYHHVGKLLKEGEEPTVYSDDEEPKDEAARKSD
T1 sequence (P70580 whole entry): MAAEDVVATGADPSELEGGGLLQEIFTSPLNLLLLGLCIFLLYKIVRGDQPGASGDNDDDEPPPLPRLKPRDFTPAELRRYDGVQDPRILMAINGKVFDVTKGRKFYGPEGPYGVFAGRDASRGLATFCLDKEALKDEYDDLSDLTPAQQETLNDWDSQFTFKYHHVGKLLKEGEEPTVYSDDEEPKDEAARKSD

**Q.** With `CCOC(=O)[C@H]1CC[C@H]2[C@@H]3CCC4=CC(=O)CC[C@]4(C)[C@H]3CC[C@]12C` [4 androstene-3-one 17β-carboxylic acid ethyl ester] as the compound, how does the pIC50 [1, 3] read?
**A.** 7.00

**Q.** With `CC(=O)O[C@@H]1C=C2CC[C@H]3[C@@H]4CC[C@H](C(C)=O)[C@@]4(C)CC[C@@H]3[C@@]2(C)CC1` [4 pregnene-3β-ol-20-one acetate] as the compound, how does the pIC50 [1, 3] read?
**A.** 6.30

**Q.** With `CC(=NOCC(=O)O)[C@H]1CC[C@H]2[C@@H]3CCC4=C[C@@H](O)CC[C@]4(C)[C@H]3CC[C@]12C` [4 pregnene-3β-ol-20-one carboxymethyloxime] as the compound, how does the pIC50 [1, 3] read?
**A.** < 4.00

**Q.** With `CC(=O)[C@H]1CC[C@H]2[C@@H]3CCC4=C[C@@H](O)CC[C@]4(C)[C@H]3CC[C@]12C` [4 pregnene-3β-ol-20-one] as the compound, how does the pIC50 [1, 3] read?
**A.** 6.30

**Q.** With `CC(=O)[C@H]1CC[C@H]2[C@@H]3C[C@@H](O)C4=CC(=O)CC[C@]4(C)[C@H]3CC[C@]12C` [6α-hydroxyprogesterone] as the compound, how does the pIC50 [1, 3] read?
**A.** 5.30

**Q.** With `CC(=O)[C@H]1CC[C@H]2[C@@H]3C[C@@H](O)C4=CC(=O)CC[C@]4(C)[C@H]3CC[C@]12C` [6β-hydroxyprogesterone] as the compound, how does the pIC50 [1, 3] read?
**A.** 5.00

**Q.** With `CC(=O)O[C@@H]1C[C@H]2[C@@H]3CC[C@H](C(C)=O)[C@@]3(C)CC[C@@H]2[C@@]2(C)CCC(=O)C=C12` [6β-progesterone acetate] as the compound, how does the pIC50 [1, 3] read?
**A.** 6.30

**Q.** With `CC(=O)[C@H]1CC[C@H]2[C@@H]3CCC4=CC(=O)CC[C@]4(C)[C@H]3[C@H](O)C[C@]12C` [11α-hydroxyprogesterone] as the compound, how does the pIC50 [1, 3] read?
**A.** 7.00

**Q.** With `CC(=O)O[C@@H]1C[C@]2(C)[C@@H](C(C)=O)CC[C@H]2[C@@H]2CCC3=CC(=O)CC[C@]3(C)[C@H]21` [11α-progesterone acetate] as the compound, how does the pIC50 [1, 3] read?
**A.** 7.00

**Q.** With `CC(=O)[C@H]1CC[C@H]2[C@@H]3CCC4=CC(=O)CC[C@]4(C)[C@H]3[C@H](OS(=O)(=O)c3ccc(C)cc3)C[C@]12C` [11α-progesterone tosylate] as the compound, how does the pIC50 [1, 3] read?
**A.** 5.00

**Q.** With `CC(=O)[C@H]1CC[C@H]2[C@@H]3CCC4=CC(=O)CC[C@]4(C)[C@H]3[C@@H](O)C[C@]12C` [11β-hydroxyprogesterone] as the compound, how does the “inhibitory activity on human HSC trans-differentiation” value (human HSCs) read?
**A.** significant inhibitory activity

**Q.** With `CC1CC2C3CCC4=CC(=O)C=CC4(C)C3(F)C(O)CC2(C)C1(O)C(=O)O` (stereo not drawn) [17β-carboxylic acid derivative, 9α-fluoro 16α-methyl-11β,17α-dihydroxy-1,4-pregn-3-one 17-carboxylic acid] as the compound, how does the pIC50 [1, 4] read?
**A.** 4.00

**Q.** For `CC(=O)[C@H]1[C@H](C#N)C[C@H]2[C@@H]3CC=C4C[C@@H](O)CC[C@]4(C)[C@H]3CC[C@@]21C` [PCN, pregnenolone 16α carbonitrile], which “competition with dexamethasone for binding to COS-7 cell extracts over-expressing rPGRMC1” value (rPGRMC1) is on record?
**A.** significant competition

**Q.** And the “inhibition of rat HSC trans-differentiation” value (rat HSCs)?
**A.** inhibited

**Q.** And the “CYP2E expression in rat hepatocytes” value (CYP3A1/3A23)?
**A.** no affect

**Q.** And the “CYP3A1/3A23 expression (induction) in rat hepatocytes” value (CYP3A1/3A23)?
**A.** induced

**Q.** With `C[C@]12CCC(=O)C=C1CC[C@@H]1[C@@H]2CC[C@]2(C)C(=O)CC[C@@H]12` [androstenedione, reference compound] as the compound, how does the pIC50 [1, 3] read?
**A.** 5.30

**Q.** With `C[C@@H]1C[C@H]2[C@@H]3CCC4=CC(=O)C=C[C@]4(C)[C@@]3(F)[C@@H](O)C[C@]2(C)[C@@]1(O)C(=O)COS(C)(=O)=O` [dexamethasone mesylate] as the compound, how does the pIC50 [1, 4] read?
**A.** 5.00

**Q.** With `C[C@@H]1C[C@H]2[C@@H]3CCC4=CC(=O)C=C[C@]4(C)[C@@]3(F)[C@@H](O)C[C@]2(C)[C@@]1(O)C(=O)CO` [dexamethasone, reference compound] as the compound, how does the pIC50 [2] read?
**A.** < 4.00

**Q.** What about the “maximal binding site concentration” value ([1]; radiolabelled dexamethasone, rat liver microsomes) of the same compound?
**A.** 8.3 pmoles/mg of microsomal protein

**Q.** Which “CYP3A4 expression (induction) in human hepatocytes” value (CYP3A4) does the source give for `C[C@H]1C[C@@H]2[C@H]([C@@H](O)C[C@@]3(C)[C@H]2CC[C@]3(O)C(=O)CO)[C@@]2(C)C=CC(=O)C=C12` [methylprednisolone, reference compound] here?
**A.** evidence of induction

**Q.** For `CC(=O)[C@H]1CC[C@H]2[C@@H]3CCC4=CC(=O)CC[C@]4(C)[C@H]3CC[C@]12C` [progesterone, reference compound], which “inhibitory activity on human HSC trans-differentiation” value (human HSCs) is on record?
**A.** significant inhibitory activity

**Q.** What about the “inhibition of rat HSC trans-differentiation” value (rat HSCs) of the same compound?
**A.** markedly inhibited

**Q.** And the “competition for dexamethasone binding to rat liver microsomes (in words)” value ([1]; rat liver microsomes)?
**A.** competed

**Q.** What does the source list for `CO[C@H]1/C=C/O[C@@]2(C)Oc3c(C)c(O)c4c(O)c(c(/C=N/N5CCN(C)CC5)c(O)c4c3C2=O)NC(=O)/C(C)=C\C=C\[C@H](C)[C@H](O)[C@@H](C)[C@@H](O)[C@@H](C)[C@H](OC(C)=O)[C@@H]1C` [rifampicin, reference compound]?
**A.** expression of TGFβ, TIMP1 and collagen 1A1 mRNAs in human myofibroblasts (human myofibroblasts): inhibited the expression of all mRNAs; inhibitory activity on human HSC trans-differentiation (human HSCs): significant inhibitory activity

**Q.** With `CCC(=O)O[C@H]1CC[C@H]2[C@@H]3CCC4=CC(=O)CC[C@]4(C)[C@H]3CC[C@]12C` [testosterone proprionate, reference compound] as the compound, how does the pIC50 [1, 3] read?
**A.** 5.00

**Q.** With biotinylated dexamethasone as the compound, how does the pIC50 [1, 4] read?
**A.** < 4.00
